For test [1], the system named is Human (non-small cell) lung cancer cell lines. The experiment in a line: XTT cytotoxicity assay, human non-small cell lung cancer cell lines. The format is cell-based. To be noted: 4 human non-small cell lung cancer cell lines, read-out: LC50 (the source's name). Here is the method:
(§1) Cytotoxicity can be easily measured using XTT assays, which provide an indication of mitochondrial activity. The XTT assay is a non-radioactive alternative for the [^51Cr] release cytotoxicity assay. XTT is a tetrazolium salt that is reduced to a formazan dye only by metabolically active, viable cells. The reduction of XTT is measured spectrophotometrically as OD490-OD650. Thus, cells that are actively metabolizing will form reaction product when subjected to XTT measurement.
(§2) For this experiment, cells were cultured under standard culture conditions. MCF7 human breast cancer cells were cultured in DMEM containing 5 mM glucose medium with 10% fetal calf serum, 0.01 mg/ml insulin and 1% penicillin/streptomycin. To measure the cytotoxicity of specific compounds against cancer cells, 9×10^3 MCF7 cells were plated per well in 96-well plates. Following overnight culture, the compounds, dissolved in DMSO, were added to the wells in 1 μl volume at specified concentrations. Vehicle controls were run for each experiment. Each condition was run in triplicate. […] Plates were read at OD490 on a PerkinElmer Victor 1420. […]
(§3) Using the XTT assay, LC50 values for C31 were determined for numerous human cancer cell lines and human hepatocytes, as shown in the following table: […]

A further test concerns Human hepatoma cell line. The experiment in a line: XTT cytotoxicity assay, human hepatoma cell line. It counts as cell-based. To be noted: 1 human hepatoma cell line, read-out: LC50 (the source's name). Here is the method:
as §1, §2, §3
(In general: Tetrazolium assays rely on reduction of a dye to a coloured formazan, in cell work by metabolically active cells.)

For test [2], the system named is HCT116 human colon cancer xenograft. The experiment in a line: tumor xenograft size, HCT116. The format is in vivo, Athymic Nude mice. To be noted: 50 mg/kg. The protocol:
Xenograft studies were performed using various mmFAS inhibitors disclosed herein. Human cancer xenograft studies are known in the art. (See Pizer et al., Cancer Res. 56:1189-1193, 1996; Pizer et al., Cancer Res. 60: 213-218, 2000; Testa et al., Oncogene 24: 7455-7464, 2005).
In particular, C31 mouse efficacy studies were conducted in order to evaluate anti-neoplastic activity of C31 in vivo. Athymic Nude mice were implanted with HCT116 human colon, SKOV3 human ovarian or OVCAR3 human ovarian cancer cell lines and were treated when the grown tumor xenografts reached at least 150 to 200 mm^3.^1 ^1 Compounds were solubilized in TEP (80% polyethylene glycol (PEG) 400, 10% ethanol, 10% tween-80) in a volume of 50 μL.

For test [3], the system named is AMP-activated protein kinase (AMPK). The experiment in a line: AMPK activation (pAMPK Western blot) in MCF 7 cells at varying glucose and oxygen. The format is cell-based, human. To be noted: MCF 7, 1 mM or 5 mM glucose, 1% or 21% oxygen, FIGS. 12, 13. The protocol:
FIG. 12 A illustrates the effects of varying oxygen and glucose concentrations on AMPK activation over time in the presence of C31 in MCF 7 cells.
Determination of AMP-activated protein kinase status was carried out using the procedure described above. Cells were grown in 6-well plates at 5×10^4 per well and incubated overnight. Cells were cultured in 1 mM or 5 mM glucose at either 1% or 21% (ambient) oxygen levels. These conditions were employed for treatment with vehicle, C31, or Riv7d. Following drug treatment, the cells were harvested in Laemmli buffer and boiled for 5 minutes. Proteins were separated on a 4-15% SDS-PAGE gradient gel and transferred to a nitrocellulose membrane. Antibodies to pAMPK and AMPK were obtained from Cell Signaling.
For orientation: A western blot detects proteins with antibodies after separation by electrophoresis.

Test [4] has the same test system. The experiment in a line: AMPK activation (pAMPK Western blot) in SKOV3 cells. It counts as cell-based, human. To be noted: over time, FIG. 8. The text has this: Another indicator of cellular energy status and metabolic compromise is the activity on the cellular kinase AMP-activated protein kinase (AMPK). AMPK is a master energy sensor. AMPK regulates both enzyme activities and gene expression. When energy levels are low, and ATP levels fall with the concomitant rise in […] levels, AMPK is activated and phosphorylated. When energy levels are surfeit, AMPK is inactivated and not phosphorylated. Thus, AMPK controls metabolic fluxes between anabolic and catabolic states.
We determined the ability of C31 or Riv7d to cause the activation of AMPK in a variety of cancer cells in vitro. SKOV3 cells were cultured in DMEM containing 5 mM glucose medium with 10% fetal calf serum, 0.01 mg/ml insulin and 1% penicillin/streptomycin. Antibodies to pAMPK and AMPK were obtained from Cell Signaling. Cells were grown in 6-well plates at 5×10^4 per well and incubated overnight. Following drug treatment, the cells were harvested in Laemmli buffer and boiled for 5 minutes. Proteins were separated on a 4-15% SDS-PAGE gradient gel and transferred to a nitrocellulose membrane.

The target of another test is T1, Type I cytosolic FAS (Homo sapiens, UniProt P49327).
T1 construct: incorporation into lipid in MCF7 human breast cancer cell lysates; endogenous in cells; host or cells: MCF7 human breast cancer cell lysate
T1 sequence (P49327 whole entry): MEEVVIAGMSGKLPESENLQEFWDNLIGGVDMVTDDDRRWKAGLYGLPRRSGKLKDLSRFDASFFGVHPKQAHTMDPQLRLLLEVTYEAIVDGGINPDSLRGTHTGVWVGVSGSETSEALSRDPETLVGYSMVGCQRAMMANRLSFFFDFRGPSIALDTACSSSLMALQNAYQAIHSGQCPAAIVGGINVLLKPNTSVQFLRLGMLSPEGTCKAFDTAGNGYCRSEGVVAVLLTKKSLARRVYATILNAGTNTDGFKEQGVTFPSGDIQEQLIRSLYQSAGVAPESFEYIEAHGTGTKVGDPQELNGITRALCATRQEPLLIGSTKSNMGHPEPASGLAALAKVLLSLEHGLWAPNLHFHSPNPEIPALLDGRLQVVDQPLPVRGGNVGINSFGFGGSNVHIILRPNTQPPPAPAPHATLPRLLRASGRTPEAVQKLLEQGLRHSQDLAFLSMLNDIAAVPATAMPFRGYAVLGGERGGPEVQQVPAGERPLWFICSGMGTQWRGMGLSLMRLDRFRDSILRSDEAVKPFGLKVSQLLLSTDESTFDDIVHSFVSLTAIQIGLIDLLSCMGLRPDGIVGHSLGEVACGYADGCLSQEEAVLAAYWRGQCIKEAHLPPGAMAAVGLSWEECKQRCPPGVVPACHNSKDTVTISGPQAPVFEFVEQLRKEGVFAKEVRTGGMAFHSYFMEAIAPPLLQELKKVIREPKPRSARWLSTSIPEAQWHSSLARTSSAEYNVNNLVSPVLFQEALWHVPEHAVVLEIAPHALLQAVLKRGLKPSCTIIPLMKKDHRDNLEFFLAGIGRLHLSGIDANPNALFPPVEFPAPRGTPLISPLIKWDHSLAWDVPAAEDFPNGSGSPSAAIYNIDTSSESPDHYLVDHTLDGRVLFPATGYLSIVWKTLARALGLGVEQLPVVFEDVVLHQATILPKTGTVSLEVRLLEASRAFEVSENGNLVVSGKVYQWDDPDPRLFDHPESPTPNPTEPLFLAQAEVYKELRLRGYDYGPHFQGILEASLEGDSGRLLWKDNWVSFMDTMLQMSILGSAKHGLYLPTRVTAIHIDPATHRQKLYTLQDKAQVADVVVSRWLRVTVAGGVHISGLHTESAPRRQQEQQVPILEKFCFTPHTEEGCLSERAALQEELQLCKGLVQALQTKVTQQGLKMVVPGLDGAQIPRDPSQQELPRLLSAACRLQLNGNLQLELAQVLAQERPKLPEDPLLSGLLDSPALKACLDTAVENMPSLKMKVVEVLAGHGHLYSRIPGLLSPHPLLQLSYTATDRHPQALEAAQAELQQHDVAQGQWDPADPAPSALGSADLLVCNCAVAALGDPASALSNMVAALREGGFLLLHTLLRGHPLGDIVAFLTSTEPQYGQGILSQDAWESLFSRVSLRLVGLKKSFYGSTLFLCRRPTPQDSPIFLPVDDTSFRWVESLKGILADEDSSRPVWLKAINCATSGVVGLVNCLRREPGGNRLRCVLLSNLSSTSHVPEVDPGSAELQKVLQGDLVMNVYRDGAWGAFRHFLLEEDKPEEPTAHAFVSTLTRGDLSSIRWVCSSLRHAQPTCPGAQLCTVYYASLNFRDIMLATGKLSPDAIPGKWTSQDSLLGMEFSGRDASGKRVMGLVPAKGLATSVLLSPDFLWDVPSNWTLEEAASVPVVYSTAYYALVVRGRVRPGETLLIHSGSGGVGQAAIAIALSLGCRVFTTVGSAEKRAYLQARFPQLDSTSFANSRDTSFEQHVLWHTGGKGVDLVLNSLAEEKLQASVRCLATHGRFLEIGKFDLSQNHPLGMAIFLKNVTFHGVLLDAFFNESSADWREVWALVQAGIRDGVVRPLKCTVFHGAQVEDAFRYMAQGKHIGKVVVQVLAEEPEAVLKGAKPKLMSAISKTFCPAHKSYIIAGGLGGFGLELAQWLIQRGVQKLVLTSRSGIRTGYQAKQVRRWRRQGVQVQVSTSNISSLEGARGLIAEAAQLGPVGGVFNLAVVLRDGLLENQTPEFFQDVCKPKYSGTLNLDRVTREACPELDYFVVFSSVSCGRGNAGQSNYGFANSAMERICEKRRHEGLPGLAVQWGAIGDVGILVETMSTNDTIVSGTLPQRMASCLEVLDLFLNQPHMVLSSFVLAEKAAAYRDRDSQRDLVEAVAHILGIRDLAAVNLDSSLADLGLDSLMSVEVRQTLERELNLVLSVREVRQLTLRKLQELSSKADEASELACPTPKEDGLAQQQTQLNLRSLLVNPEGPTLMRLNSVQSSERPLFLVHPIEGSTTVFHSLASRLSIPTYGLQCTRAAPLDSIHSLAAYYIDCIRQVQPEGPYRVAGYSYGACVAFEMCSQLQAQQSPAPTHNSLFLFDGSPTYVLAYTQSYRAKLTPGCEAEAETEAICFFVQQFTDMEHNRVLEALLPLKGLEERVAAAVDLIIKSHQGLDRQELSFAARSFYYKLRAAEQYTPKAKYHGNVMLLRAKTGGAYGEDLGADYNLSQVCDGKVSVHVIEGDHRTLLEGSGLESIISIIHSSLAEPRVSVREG
The experiment in a line: Type I cytosolic FAS activity, [14C]malonyl-CoA incorporation into lipid in MCF7 cell lysates. It counts as biochemical. The settings on record: MCF7 human breast cancer cell lysates, read-out: IC50, inhibition of Type I cytosolic FAS activity. The source says: The invention provides for methods that involve determining and/or measuring Type I and mmFAS activity. Methods of measuring Type I FAS activity are known in the art. (See, e.g., U.S. Pat. Nos. 5,759,837 and 5,981,575, which are hereby incorporated by reference in their entirety). For example, Type I FAS activity may be measured in whole cells by monitoring the incorporation of [14C]acetate into total lipids. In cell lysates, Type I FAS activity may be measured by monitoring the incorporation of [14C] from malonyl CoA into total lipids. Alternatively, Type I FAS activity may be determined using purified enzyme with acetyl CoA and malonyl CoA as substrates by measuring incorporation of radioactivity or measuring oxidation of NADPH spectrophotometrically. To test the inhibition of Type I FAS activity, a test compound is added to the reaction mixture.

The subject of test [5] is Human breast cancer cell lines. The experiment in a line: XTT cytotoxicity assay, human breast cancer cell lines. The format is cell-based. The settings on record: 5 human breast cancer cell lines, read-out: LC50 (the source's name). The protocol: as §1, §2, §3

≈ marks a conversion by molar mass, not a printed value.

Usually IC50 stands for the concentration that inhibits the measured activity by half. Take `CCCCCCCCC1(C)SC(=O)C=C1OCC(=O)Nc1ccc(Cl)cc1` (centres unmarked) [Compound C31]: the CC50 in test [1] is 4 to 8 µg/mL (≈ 9.76 to 19.5 µM); in the test on Human hepatoma cell line it was 5 µg/mL (≈ 12.2 µM); in test [5], 3.3 to 16.7 µg/mL (≈ 8.05 to 40.7 µM). For the same compound, the “Average Tumor Size Endpoint (% Change)” value in test [2] (Study 72406, HCT-116, IP b.i.d. 8 days) is reported as −59 % Change; in test [2] (Study 101707, HCT-116, oral b.i.d. 16 days), “+256 % Change”. In addition, the “AMPK phosphorylation (quantitative Western blots)” value in test [3] was “increased phosphorylation of AMPK”. Moreover, the “AMPK activation (pAMPK levels, Western blot)” value in test [4] is given as “rapid activation of AMPK”. Besides, the IC50 at Type I cytosolic FAS stood at 17.8 µM.

The values are drawn from US20140243401A1, “METHODS OF SCREENING COMPOUNDS THAT ARE CYTOTOXIC TO TUMOR CELLS AND METHODS OF TREATING TUMOR CELLS USING SUCH COMPOUND” (The Johns Hopkins University, priority 2010, published 2014).
